From article PMC8370991, “Structural basis for the inhibition of HTLV-1 integration inferred from cryo-EM deltaretroviral intasome structures” (Nature Communications, 2021)
Where two headings read alike, the source gives them in different places.

Biological target: T1, recombinant HTLV-1 IN (Human T-cell leukemia virus 1, UniProt P03362)
T1 construct: made in house
Experiment: In vitro integration strand transfer assay with HTLV-1 IN
Assay type: biochemical
Settings: for HTLV-1 IN strand transfer activity (No drug = 100): INSTI at 634 nM; for IC50 compared with that of RAL: dose-response strand transfer assays
Description: We used in vitro strand transfer assays to screen this small molecule library for its ability to inhibit recombinant HTLV-1 IN. The enzyme was incubated with an oligonucleotide vDNA donor mimic in the presence or absence of INSTIs and was allowed to react with a supercoiled plasmid mimicking target DNA. During the screening, the concentration of each compound was adjusted to 634 nM to provide optimal resolution of efficacy between well- and under-performing compounds.
The donor vDNA that mimics the 3′-processed LTR of HTLV-1 or STLV-1 DNA was preassembled by annealing the U5_S20Q_UP and U5_S20Q_B or MarB43_U5_S30UP or MarB43_U5_S30B oligonucleotides, respectively (Supplementary Table 4) in 100 mM Tris pH 7.4, 400 mM NaCl. For HTLV-1 IN, strand transfer reactions were conducted in a solution of 24.3 mM PIPES pH 6.0, 138.4 mM NaCl, 16.6 mM MgCl2, 5.8 μM ZnCl2, 12.7 mM DTT, 0.53 μM donor DNA and 4 μg of HTLV-1 IN[9],[39]. In brief, the reaction was incubated at RT for 15 min in the presence of an INSTI or dimethyl sulfoxide (DMSO) control and the reaction was started by the addition of 300 ng of pGEM-9Zf(-) supercoiled plasmid DNA. The reaction was incubated for 1 h at 37 °C and stopped by adding 0.5% SDS and 25 mM ethylenediaminetetraacetic acid (EDTA), pH 8.0.
Proteins were degraded by incubation with 30 μg of proteinase K (Roche) at 37 °C for 1 h. DNA was precipitated at −20 °C overnight in the presence of ethanol supplemented with 20 μg of glycogen and then resuspended in 1.5× agarose loading dye. The DNA products were separated by electrophoresis through 1.5% agarose gel and stained with ethidium bromide and imaged using the BioRad GelDox XR + imager. The data were analysed and the IC50 calculated as previously described. In brief, the DNA band that corresponds to the concerted integration product was quantified by densitometry in ImageLab 4.1 (Bio-Rad). All experiments were done in triplicate. Quantified data points were fitted to dose–response curves in Prism 9. The cumulative standard deviation for each drug was calculated as an average of the upper limit and lower limit values: Lowerlimit=IC50/10^logSE(IC50) Upperlimit=IC50×10^logSE(IC50)

[1] = Replicate 1, read-out: HTLV-1 IN strand transfer IC50
[2] = Replicate 2, read-out: HTLV-1 IN strand transfer IC50
[3] = Replicate 3, read-out: HTLV-1 IN strand transfer IC50
[4] = integrase strand-transfer drug titration, n = 3, read-out: HTLV-1 IC50 ± stdev

T1 sequence (P03362 1168-1462): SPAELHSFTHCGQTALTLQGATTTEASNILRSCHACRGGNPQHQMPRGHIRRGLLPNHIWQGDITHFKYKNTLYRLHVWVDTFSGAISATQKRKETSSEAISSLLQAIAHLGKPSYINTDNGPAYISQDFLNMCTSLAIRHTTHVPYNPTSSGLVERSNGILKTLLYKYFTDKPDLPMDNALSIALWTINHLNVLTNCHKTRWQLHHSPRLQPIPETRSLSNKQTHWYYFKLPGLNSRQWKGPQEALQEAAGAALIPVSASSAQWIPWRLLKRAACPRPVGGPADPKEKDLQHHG

Compound | HTLV-1 IN strand transfer activity (No drug = 100) (Replicate 1) [%] | HTLV-1 IN strand transfer activity (No drug = 100) (Replicate 2) [%] | HTLV-1 IN strand transfer activity (No drug = 100) (Replicate 3) [%] | IC50 [1] [nM] | IC50 [2] [nM] | IC50 [3] [nM] | IC50 compared with that of RAL | IC50 [4] [nM] | inhibition of HTLV-1 IN in the screen compared with RAL (each compound at 634 nM)
Nc1c(C(=O)NCc2ccc(F)cc2F)c(=O)n(O)c2ncc(-c3ccccc3)cc12 [XZ420, 4-amino-N-(2,4-difluorobenzyl)-1-hydroxy-2-oxo-6-phenyl-1,2-dihydro-1,8-naphthyridine-3-carboxamide] | 20.0015 | 29.6468 | 21.6983 | 276 | 499 | 466 | no significant improvement over RAL | 411 ± 93 | –
O=C(O)/C(O)=C/C(=O)c1cc(OCc2ccccc2)cc(OCc2ccccc2)c1 [XZ320, (Z)-4-(3,5-bis(benzyloxy)phenyl)-2-hydroxy-4-oxobut-2-enoic acid, reference compound] | 35.3455 | 62.3815 | 55.2426 | – | – | – | – | – | –
Nc1c(C(=O)NCc2ccc(F)cc2F)c(=O)n(O)c2nc(N3CCOCC3)ccc12 [XZ413, 4-amino-N-(2,4-difluorobenzyl)-1-hydroxy-7-morpholino-2-oxo-1,2-dihydro-1,8-naphthyridine-3-carboxamide] | 103.686 | 92.8191 | 81.1252 | – | – | – | – | – | –
COC(=O)CCc1c2c(c(O)c(=O)n1C(C)C)C(=O)N(Cc1ccc(F)c(Cl)c1)C2=O [XZ220, methyl 3-(2-(3-chloro-4-fluorobenzyl)-7-hydroxy-5-isopropyl-1,3,6-trioxo-2,3,5,6-tetrahydro-1H-pyrrolo[3,4-c]pyridin-4-yl)propanoate] | 93.628 | 97.195 | 85.9754 | – | – | – | – | – | –
O=C1c2ccc(O)c(O)c2C(=O)N1Cc1ccc(F)c(Cl)c1 [XZ89, 2-(3-chloro-4-fluorobenzyl)-4,5-dihydroxyisoindoline-1,3-dione] | 87.9286 | 85.883 | 98.5818 | – | – | – | – | – | –
CC(C)NC(=O)/C=C/c1cnc2c(c1)c(N)c(C(=O)NCc1ccc(F)cc1F)c(=O)n2O [XZ452, (E)-4-amino-N-(2,4-difluorobenzyl)-1-hydroxy-6-(3-(isopropylamino)-3-oxoprop-1-en-1-yl)-2-oxo-1,2-dihydro-1,8-naphthyridine-3-carboxamide] | 11.3751 | 23.2017 | 17.2877 | 174 | 162 | 229 | – | 182 ± 44.7 | –
COC(=O)c1c(N)c2cccnc2n(O)c1=O [XZ462, methyl 4-amino-1-hydroxy-2-oxo-1,2-dihydro-1,8-naphthyridine-3-carboxylate] | 111.483 | 96.7056 | 116.696 | – | – | – | – | – | –
Cc1c2c(c(O)c(=O)n1C)C(=O)N(Cc1ccc(F)c(Cl)c1)C2=O [XZ202, 2-(3-chloro-4-fluorobenzyl)-7-hydroxy-4,5-dimethyl-1H-pyrrolo[3,4-c]pyridine-1,3,6(2H,5H)-trione] | 98.3269 | 98.0594 | 97.9688 | – | – | – | – | – | –
Cc1c2c(c(O)c(=O)n1Cc1ccc(F)c(Cl)c1)C(=O)N(C)C2=O [XZ242, 5-(3-chloro-4-fluorobenzyl)-7-hydroxy-2,4-dimethyl-1H-pyrrolo[3,4-c]pyridine-1,3,6(2H,5H)-trione] | 115.41 | 99.061 | 100.661 | – | – | – | – | – | –
CN(C)C(=O)c1nc(O)c(O)c2c1CCN(Cc1ccc(F)c(Cl)c1)C2=O [XZ235, 6-(3-chloro-4-fluorobenzyl)-3,4-dihydroxy-N,N-dimethyl-5-oxo-5,6,7,8-tetrahydro-2,6-naphthyridine-1-carboxamide] | 50.5732 | 55.8637 | 62.5799 | – | – | – | – | – | –
O=C(NCc1ccc(F)cc1F)c1c(NCCO)c2cccnc2n(O)c1=O [XZ378, N-(2,4-difluorobenzyl)-1-hydroxy-4-((2-hydroxyethyl)amino)-2-oxo-1,2-dihydro-1,8-naphthyridine-3-carboxamide] | 14.3053 | 44.0798 | 36.7031 | 311 | 474 | 392 | no significant improvement over RAL | 397 ± 64 | outperformed RAL
Nc1c(C(=O)NCc2ccc(F)cc2F)c(=O)n(O)c2ncc(CCCOCCO)cc12 [XZ432, 4-amino-N-(2,4-difluorobenzyl)-1-hydroxy-6-(3-(2-hydroxyethoxy)propyl)-2-oxo-1,2-dihydro-1,8-naphthyridine-3-carboxamide] | 18.6132 | 21.9961 | 19.5014 | 177 | 156 | 173 | – | 168 ± 17 | –
O=C(NNC(=O)c1cccc(O)c1O)c1cccc(O)c1O [XZ15, N'-(2,3-dihydroxybenzoyl)-2,3-dihydroxybenzohydrazide] | 99.084 | 89.5316 | 92.2753 | – | – | – | – | – | –
O=C(NCc1ccc(F)cc1F)c1c(NCCO)c2cc(CCCCCO)cnc2n(O)c1=O [XZ439, N-(2,4-difluorobenzyl)-1-hydroxy-4-((2-hydroxyethyl)amino)-6-(5-hydroxypentyl)-2-oxo-1,2-dihydro-1,8-naphthyridine-3-carboxamide] | 27.6089 | 29.3463 | 25.7676 | 270 | 239 | 232 | – | – | –
O=C(NN1Cc2ccc(O)c(O)c2C1=O)c1cccc(O)c1O [XZ49, N-(6,7-dihydroxy-1-oxoisoindolin-2-yl)-2,3-dihydroxybenzamide] | 94.3672 | 88.3747 | 109.808 | – | – | – | – | – | –
O=C(NNC(=O)c1cccc(O)c1O)c1ccccc1O [XZ45, 2,3-dihydroxy-N'-(2-hydroxybenzoyl)benzohydrazide] | 95.0641 | 107.975 | 100.183 | – | – | – | – | – | –
CCN1CCn2c(c3c(c(O)c2=O)C(=O)N(Cc2ccc(F)c(Cl)c2)C3=O)C1=O [XZ256, 9-(3-chloro-4-fluorobenzyl)-2-ethyl-7-hydroxy-3,4-dihydropyrrolo[3',4':3,4]pyrido[1,2-a]pyrazine-1,6,8,10(2H,9H)-tetraone] | 112.467 | 93.5244 | 114.376 | – | – | – | – | – | –
